Data reported in publication PMC4510645, “Discovery of intramolecular trans-sialidases in human gut microbiota suggests novel mechanisms of mucosal adaptation” (Nature Communications, 2015).
Entries after “also recorded” stand apart in the source; their conditions may differ.

How the values were obtained:
RgNanH [1] = target: T1, RgNanH (Mediterraneibacter gnavus (Ruminococcus gnavus), UniProt A7B557); assay: Inhibition of RgNanH activity against 4MU-Neu5Ac by neuraminidase inhibitors; assay type: biochemical, Ruminococcus gnavus ATCC 29149; details: 4MU-Neu5Ac 0.51 mM, 1 nM enzyme; Neu5Ac 0-0.3 mM, Lac 0-1.5 mM; pH 6.5, 37 °C
T1 sequence (A7B557 26-723): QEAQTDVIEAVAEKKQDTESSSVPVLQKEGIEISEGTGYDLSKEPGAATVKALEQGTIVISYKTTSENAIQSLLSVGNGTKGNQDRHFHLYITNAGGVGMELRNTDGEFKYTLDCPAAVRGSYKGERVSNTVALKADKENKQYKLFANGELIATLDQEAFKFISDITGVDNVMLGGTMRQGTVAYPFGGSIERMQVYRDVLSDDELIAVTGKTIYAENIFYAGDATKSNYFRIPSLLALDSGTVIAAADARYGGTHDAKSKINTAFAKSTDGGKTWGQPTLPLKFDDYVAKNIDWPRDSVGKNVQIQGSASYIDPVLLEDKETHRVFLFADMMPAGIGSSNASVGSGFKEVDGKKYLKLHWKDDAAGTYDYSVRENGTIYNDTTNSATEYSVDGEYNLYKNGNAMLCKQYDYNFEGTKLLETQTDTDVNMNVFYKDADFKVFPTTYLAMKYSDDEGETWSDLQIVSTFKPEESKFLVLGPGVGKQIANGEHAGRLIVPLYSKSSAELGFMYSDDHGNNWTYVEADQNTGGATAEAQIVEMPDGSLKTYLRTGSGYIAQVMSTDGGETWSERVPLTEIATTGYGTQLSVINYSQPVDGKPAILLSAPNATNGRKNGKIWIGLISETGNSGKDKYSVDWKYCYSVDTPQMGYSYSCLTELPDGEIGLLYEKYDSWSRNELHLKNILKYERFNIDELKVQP
Method: Figure 1 Kinetic analysis of the hydrolysis of sialylated substrates by RgNanH in presence or absence of inhibitors. Substrate (a) 4MU-Neu5Ac or (b) PNP-Neu5Ac was incubated with RgNanH ([…] and 0.43 nM, respectively) at 37 °C, pH 6.5 and the release of product measured using a plate reader. (c) Inhibition of RgNanH (1.00 nM) incubated with 4MU-Neu5Ac (0.51 mM) by zanamivir (●), Neu5Ac2en (▪), siastatin B (▴) and OC (♦), the rates are normalized to a % of the uninhibited rate. [I] is the inhibitor concentration. (d) 3′SL was incubated with RgNanH (2.25 nM) and the release of product measured by HPAEC-PAD. Experiments were done at least in duplicate (usually triplicate) and the error bars show the s.e.m.
The purified enzymes were incubated with the substrate in buffer made from 20 mM Na2HPO4 and 20 mM NaH2PO4 adjusted to pH 6.5 containing 1 mg ml^−1 BSA at 37 °C unless otherwise stated. For 4MU-Neu5Ac, the progression of the reaction was monitored by the release of the MU using a 96-well plate reader (BMG Labtech, Ortenberg, Germany) using fluorescence with an excitation at 340 nm and an emission at 420 nm. For determining the optimal temperature, the assay was carried out in 20 mM PBS at pH 7.4. For determining the optimal pH, the assay was carried out at 37 °C using buffer made from 20 mM Na2HPO4 and 20 mM NaH2PO4 in varying proportions to obtain the desired pH. PNP release from PNP-Neu5Ac was monitored in a similar way measuring absorbance at 405 nm every 60 s. For 3′SL, the reaction was monitored by HPAEC-PAD. An aliquot of the reaction was removed from the main reaction volume at the reaction stopped by boiling for 20 min, the enzyme was then removed by centrifugation at 17,000g for 10 min and filtration with a 0.2-μm filter (Millipore, Billerica, USA). The sugars were separated by HPAEC with an isocratic gradient of 100 mM NaOH and 100 mM NaAC at 1 ml min^−1 on a CarboPac PA1 protected with a guard column and detected using PAD on a Dionex ICS5000 system (Thermo Scientific, Hemel Hempstead, UK). The column was cleaned with 10 ml of 500 mM NaOH and 500 mM NaAc, and the column was re-equilibrated with 100 mM NaOH and 100 mM NaAc. An internal standard of fucose was used to quantify the results. […]

R. gnavus ATCC 29149 = tested on: R. gnavus ATCC 29149; parameters: method as in PMID 24204617; details: R. gnavus ATCC 29149; cited from earlier work
[2] = Spontaneous interconversion of 2,7-anhydro-Neu5Ac and Neu5Ac by 1H NMR; assay type: physicochemical; details: up to 24 h at 37 °C
Method: The products of the reaction were thus further monitored by ^1H nuclear magnetic resonance (NMR). […] (Fig. 3). These peaks are characteristic of 2,7-anhydro-α-N-acetylneuraminic acid (2,7-anhydro-Neu5Ac) and arise from the protons in positions 6 and 7 (Fig. 3a). Peaks corresponding to 2,7-anhydro-Neu5Ac were observed when RgNanH was incubated in presence of 4MU-Neu5Ac (Fig. 3a) or 3′SL (Fig. 3b). […] The signals of 2,7-anhydro-Neu5Ac and their chemical shifts are shown in Supplementary Table 1. This product was absent in control experiments using A. muciniphila sialidases (AkmNan0625 and AkmNan1835) or in absence of enzyme, confirming the specificity of the enzymatic reaction (Supplementary Fig. 5).
Extracts (400 μl) were mixed with 200 μl of D2O and 20 μl of a solution of D2O containing 1 mM of TSP (sodium 3-(trimethylsilyl)-propionate-d4). Samples (500 μl) were transferred into a 5-mm NMR tube for spectral acquisition. The ^1H NMR spectra were recorded at 600 MHz on a Bruker Avance spectrometer (Bruker BioSpin GmbH, Rheinstetten, Germany) running Topspin 2.0 software, and were fitted with a cryoprobe and a 60-slot autosampler. Each ^1H NMR spectrum was acquired with 128 scans, a spectral width of 8,012.8 Hz, an acquisition time of 2.04 s and a relaxation delay of 2.0 s. […]

RgNanH [3] = target: T1, RgNanH; assay: Hydrolysis of sialic acid from glycoproteins monitored by 1H NMR; assay type: biochemical, Ruminococcus gnavus ATCC 29149; details: glycoprotein 1 mg ml^−1, 1 nM enzyme, 37 °C, pH 6.5, overnight
Method: The ability of RgNanH to hydrolyse sialic acid from glycoproteins was investigated by incubation of the enzyme with human α-1-acid glycoprotein (AGP) and fetuin (Fet) both of which are known to contain α2-3 sialyl linkages, while asialo-Fet was also included as a control.
(§1) For specificity tests against sialylated oligosaccharides (1 mM) and glycoproteins (1 mg ml^−1), 1 nM of enzyme was incubated with the substrate at 37 °C, pH 6.5, overnight.
Extracts (400 μl) were mixed with 200 μl of D2O and 20 μl of a solution of D2O containing 1 mM of TSP (sodium 3-(trimethylsilyl)-propionate-d4). Samples (500 μl) were transferred into a 5-mm NMR tube for spectral acquisition. The ^1H NMR spectra were recorded at 600 MHz on a Bruker Avance spectrometer (Bruker BioSpin GmbH, Rheinstetten, Germany) running Topspin 2.0 software, and were fitted with a cryoprobe and a 60-slot autosampler. Each ^1H NMR spectrum was acquired with 128 scans, a spectral width of 8,012.8 Hz, an acquisition time of 2.04 s and a relaxation delay of 2.0 s. The ‘noesypr1d' presaturation sequence was used to suppress the residual water signal with a low-power selective irradiation at the water frequency during the recycle delay and a mixing time of 100 ms. Spectra were transformed with a 0.3-Hz line broadening, manually phased, baseline corrected and referenced by setting the TSP methyl signal to 0 p.p.m.

RgNanH [4] = target: T1, RgNanH; assay: Kinetic parameters of RgNanH with sialylated substrates; assay type: biochemical, Ruminococcus gnavus ATCC 29149; details: pH 6.5, 37 °C
Method: (§2) The purified enzymes were incubated with the substrate in buffer made from 20 mM Na2HPO4 and 20 mM NaH2PO4 adjusted to pH 6.5 containing 1 mg ml^−1 BSA at 37 °C unless otherwise stated. For 4MU-Neu5Ac, the progression of the reaction was monitored by the release of the MU using a 96-well plate reader (BMG Labtech, Ortenberg, Germany) using fluorescence with an excitation at 340 nm and an emission at 420 nm. For determining the optimal temperature, the assay was carried out in 20 mM PBS at pH 7.4. For determining the optimal pH, the assay was carried out at 37 °C using buffer made from 20 mM Na2HPO4 and 20 mM NaH2PO4 in varying proportions to obtain the desired pH. PNP release from PNP-Neu5Ac was monitored in a similar way measuring absorbance at 405 nm every 60 s. For 3′SL, the reaction was monitored by HPAEC-PAD. An aliquot of the reaction was removed from the main reaction volume at the reaction stopped by boiling for 20 min, the enzyme was then removed by centrifugation at 17,000g for 10 min and filtration with a 0.2-μm filter (Millipore, Billerica, USA). The sugars were separated by HPAEC with an isocratic gradient of 100 mM NaOH and 100 mM NaAC at 1 ml min^−1 on a CarboPac PA1 protected with a guard column and detected using PAD on a Dionex ICS5000 system (Thermo Scientific, Hemel Hempstead, UK). The column was cleaned with 10 ml of 500 mM NaOH and 500 mM NaAc, and the column was re-equilibrated with 100 mM NaOH and 100 mM NaAc. An internal standard of fucose was used to quantify the results.
For 4MU-Neu5Ac and 3′SL, the rate of hydrolysis without enzyme was not significant, thus raw data were used. However, for pNP-Neu5Ac, the rate of hydrolysis without enzyme was significant, thus the rate with enzyme was corrected by the subtraction of the rate without enzyme at each concentration of substrate. For 3′SL, the rate of reaction was calculated by plotting the amount of substrate remaining over the course of >50 % of the reaction using the following equation[58]: […]
Where k is kcat/KM × enzyme concentration, t is time, [S0] and [St] are substrate concentrations at time 0 and t, respectively.
Kinetic data were obtained from at least duplicate (usually triplicate) experiments, and the kinetic parameters were calculated by fitting the initial raw data to the Michaelis–Menten equation using a nonlinear regression analysis programme (Prism 6, GraphPad, San Diego, USA), and error bars (s.e.m.) are shown.

RgNanH [5] = target: T1, RgNanH; assay: Specificity against sialyl-oligosaccharides, HPAEC-PAD; assay type: biochemical, Ruminococcus gnavus ATCC 29149; parameters: key to Activity RgNanH: +: Activity was defined as disappearance of the substrate peak and appearance of a lower-molecular weight peak, which could correspond to the desialylated substrate; details: 37 °C; for Activity RgNanH: substrate 1 mM, 1 nM enzyme, pH 6.5, overnight
Method: (§3) Figure 2 Specificity of RgNanH towards sialylated oligosaccharides. The enzymes were incubated with sialylated substrates at 37 °C, pH 6.5, overnight and the reaction products were analysed by HPAEC-PAD. Control reactions without enzyme were also performed. The injection peak is marked (inj). Glycerol (gly) was also present in AkmNan0625. (a) Standards (Lac, Neu5Ac, 3′SL and 6′SL), (b) 3′SL, (c) 6′SL and (d) 3'-α-sialyl-N-acetyllactosamine (3′SLacNAc). AkmNan1835 has a similar profile to […].
as §2, §1

[6] = tested on: AkmNan0625 and AkmNan1835; assay: Specificity against sialyl-oligosaccharides, HPAEC-PAD (control sialidases); assay type: biochemical, Akkermansia muciniphila; parameters: key to Activity AkmNan0625 and AkmNan1835: +: Activity was defined as disappearance of the substrate peak and appearance of a lower-molecular weight peak, which could correspond to the desialylated substrate; details: 37 °C; for activity of AkmNan0625 and AkmNan1835 on substrate (in words): pH 6.5; for Activity AkmNan0625 and AkmNan1835: substrate 1 mM, 1 nM enzyme, pH 6.5, overnight
Method: as §3
All chemicals were obtained from Sigma (St Louis, USA) unless otherwise stated. The A. muciniphila sialidases, termed here AkmNan0625 and AkmNan1835, were obtained by His-Tag overexpression of their genes (Amuc_0625 and Amuc_1835, respectively)[56] in E. coli BL21(DE3) and subsequent purification to homogeneity by immobilized metal affinity chromatography as described below. The sialylated oligosaccharides and OC were obtained from Carbosynth (Berks, UK).
as §2, §1

## OC[C@H]1O[C@@H](O[C@H]2[C@H](O)[C@@H](O)C(O)O[C@@H]2CO)[C@H](O)[C@@H](O)[C@H]1O (mixture of isomers) [lactose]
RgNanH [1]
  Inhibition of RgNanH: not inhibited
R. gnavus ATCC 29149
  ability of the bacteria to grow on the substrate: not

## CC(=O)N[C@H]1[C@H]2O[C@@](C(=O)O)(C[C@@H]1O)O[C@@H]2[C@H](O)CO [2,7-anhydro-Neu5Ac, 2,7-anhydro-α-N-acetylneuraminic acid]
[2]
  spontaneous conversion between 2,7-anhydro-Neu5Ac and Neu5Ac: no spontaneous conversion

## AGP: human α-1-acid glycoprotein, known to contain α2-3 sialyl linkages
RgNanH [3]
  activity of RgNanH against glycoprotein (2,7-anhydro-Neu5Ac peaks by 1H NMR): showed activity
RgNanH [3]; listed as α-1-AGP
  activity of RgNanH against glycoprotein (2,7-anhydro-Neu5Ac peaks by 1H NMR): substrates

## Fet: fetuin, glycoprotein known to contain α2-3 sialyl linkages
RgNanH [3]
  activity of RgNanH against glycoprotein (2,7-anhydro-Neu5Ac peaks by 1H NMR): showed activity; also recorded: substrates

## Neu5Ac-α-2-3-Gal-β-1-4-Glc [3′SL]
RgNanH [4]; substrate inhibition, s.e.m.
  Ki: 760 ± 230 µM
RgNanH [4]; substrate of RgNanH
  kcat: 0.4283 s⁻¹
RgNanH [4]; substrate of RgNanH, s.e.m.
  KM: below detection limit
  Km: < 100 µM
  Vmax: 0.0566 ± 0.0057 µM/min
RgNanH [5]
  Activity RgNanH: +
[6]
  activity of AkmNan0625 and AkmNan1835 on substrate (in words): active
  Activity AkmNan0625 and AkmNan1835: +
R. gnavus ATCC 29149
  ability of the bacteria to grow on the substrate: grow

## Neu5Ac-α-2-3-Gal-β-1-4-GlcNAc [3′-α-Sialyl-N-acetyllactosamine]
RgNanH [5]
  Activity RgNanH: +
[6]
  Activity AkmNan0625 and AkmNan1835: +

## Neu5Ac-α-2-6-Gal-β1-4-Glc [6′SL]
RgNanH [5]; pH 6.5
  enzymatic activity of RgNanH on substrate (in words): no enzymatic activity
[6]
  activity of AkmNan0625 and AkmNan1835 on substrate (in words): active
  Activity AkmNan0625 and AkmNan1835: +
R. gnavus ATCC 29149
  ability of the bacteria to grow on the substrate: not

## asialo-Fet: asialo-fetuin, included as a control
RgNanH [3]
  activity of RgNanH against glycoprotein (2,7-anhydro-Neu5Ac peaks by 1H NMR): no change
